Like-named read-outs stand apart in the source and are kept apart here.
Legend:
[1] = test system: lung cancer (4 cell lines); test: CellTiter-Glo Viability Assay, lung cancer; format: cell-based; conditions: Homo sapiens, inhibition of cancer cell proliferation
[2] = test system: colorectal cancer (6 cell lines); test: CellTiter-Glo Viability Assay, colorectal cancer; format: cell-based; conditions: Homo sapiens, inhibition of cancer cell proliferation
[3] = test system: liver cancer (3 cell lines); test: CellTiter-Glo Viability Assay, liver cancer; format: cell-based; conditions: Homo sapiens, inhibition of cancer cell proliferation
[4] = test system: haematopoietic & lymphoid tumors (13 cell lines); test: CellTiter-Glo Viability Assay, haematopoietic & lymphoid tumors; format: cell-based; conditions: Homo sapiens, inhibition of cancer cell proliferation
[5] = test system: T47D; test: CellTiter-Glo Viability Assay, breast cancer; format: cell-based; conditions: Homo sapiens, 96 h, breast cancer, four days, read-out: EC50
[6] = test system: CAMA1; test: CellTiter-Glo Viability Assay, breast cancer; format: cell-based; conditions: Homo sapiens, CAMA-1, 96 h; CAMA1, breast cancer, four days; read-out: EC50
[7] = test system: HCC1599; test: CellTiter-Glo Viability Assay, breast cancer; format: cell-based; conditions: Homo sapiens, 96 h; HCC1599, breast cancer, four days; read-out: EC50
[8] = test system: ZR-75-1; test: CellTiter-Glo Viability Assay, breast cancer; format: cell-based; conditions: Homo sapiens, 96 h; ZR-75-1, breast cancer, four days; read-out: EC50
[9] = test system: MDA-MB-231-Luc; test: CellTiter-Glo Viability Assay, breast cancer; format: cell-based; conditions: Homo sapiens, 96 h; MDA-MB-231-Luc, breast cancer, four days; read-out: EC50
[10] = test system: MCF7; test: CellTiter-Glo Viability Assay, breast cancer; format: cell-based; conditions: Homo sapiens, 96 h; MCF7, breast cancer, four days; read-out: EC50
[11] = test system: BT-549; test: CellTiter-Glo Viability Assay, breast cancer; format: cell-based; conditions: Homo sapiens, 96 h; BT-549, breast cancer, four days; read-out: EC50
[12] = test system: DU4475; test: CellTiter-Glo Viability Assay, breast cancer; format: cell-based; conditions: Homo sapiens, DU-4475, 96 h; DU4475, breast cancer, four days; read-out: EC50
[13] = test system: prostate cancer (5 cell lines); test: CellTiter-Glo Viability Assay, prostate cancer; format: cell-based; conditions: Homo sapiens
[14] = test system: pancreatic cancer (8 cell lines); test: CellTiter-Glo Viability Assay, pancreatic cancer; format: cell-based; conditions: Homo sapiens, inhibition of cancer cell proliferation
[15] = molecular target: T1, CLK2 (Homo sapiens, UniProt P49760); test: CLK2 kinase activity assay (Z-lyte, Ser/Thr 6 peptide); format: biochemical; conditions: recombinant CLK2 kinase, ATP 60 μM; read-out: EC50
T1 construct: purchased Thermo Fisher (Life Technologies), Z'-LYTE Kinase Assay Kits
Method: All reactions were performed in duplicate.

[16] = test system: all 50 cell lines; test: CellTiter-Glo Viability Assay, average across all cell lines; format: cell-based; conditions: Homo sapiens; across all 50 cell lines; read-out: average EC50 for inhibition of cancer cell proliferation
How it was run: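 Cancer cell lines of several tumour types plated at 300-3,000 cells/well and exposed to compound in duplicate for four days at 37° C, 5% CO2, with DMSO-treated controls. Viability read by CellTiter-Glo luminescence (ATP content); EC50 derived from dose-response curves.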

[17] = molecular target: CLK3 (Homo sapiens, UniProt P49761); test: CLK3 kinase activity assay (Z-lyte, Ser/Thr 18 peptide)
[18] = test system: ovarian cancer (4 cell lines); test: CellTiter-Glo Viability Assay, ovarian cancer; format: cell-based; conditions: Homo sapiens, inhibition of cancer cell proliferation
[19] = A-427, A427 cell line, read-out: Lung cancer, EC50 (μM) A427
[20] = HCC78, HCC-78 cell line, read-out: Lung cancer, EC50 (μM) HCC-78
[21] = NCI-H460 cell line, read-out: Lung cancer, EC50 (μM) NCI-H460
[22] = NCI-H522 cell line, read-out: Lung cancer, EC50 (μM) NCI-H522
[23] = HCT-116, HCT116 cell line, read-out: Colorectal cancer, EC50 (μM) HCT116
[24] = HT-29, HT29 cell line, read-out: Colorectal cancer, EC50 (μM) HT29
[25] = SW-620, SW620 cell line, read-out: Colorectal cancer, EC50 (μM) SW620
[26] = DLD-1 cell line, read-out: Colorectal cancer, EC50 (μM) DLD-1
[27] = SW48 cell line, read-out: Colorectal cancer, EC50 (μM) SW48
[28] = SW480 cell line, read-out: Colorectal cancer, EC50 (μM) SW480
[29] = SNU-398, SNU398 cell line, read-out: Liver cancer, EC50 SNU398
[30] = HEPG2 cell line, read-out: Liver cancer, EC50 HEPG2
[31] = PLC/PRF/5 cell line, read-out: Liver cancer, EC50 PLC/PRF/5
[32] = DND41, DND-41 cell line, read-out: Haematopoietic & Lymphoid tumors, EC50 (μM) DND-41
[33] = MV4-11, MV-4-11 cell line, read-out: Haematopoietic & Lymphoid tumors, EC50 (μM) MV-4-11
[34] = Rec1, REC-1 cell line, read-out: Haematopoietic & Lymphoid tumors, EC50 (μM) REC-1
[35] = SU-DHL-4, SUDHL4 cell line, read-out: Haematopoietic & Lymphoid tumors, EC50 (μM) SUDHL4
[36] = HL-60 cell line, read-out: Haematopoietic & Lymphoid tumors, EC50 (μM) HL-60
[37] = JM1 cell line, read-out: Haematopoietic & Lymphoid tumors, EC50 (μM) JM1
[38] = JURKAT, Clone E6-1 cell line, read-out: Haematopoietic & Lymphoid tumors, EC50 (μM) JURKAT, Clone E6-1
[39] = JeKo-1 cell line, read-out: Haematopoietic & Lymphoid tumors, EC50 (μM) JeKo-1
[40] = KASUMI-1 cell line, read-out: Haematopoietic & Lymphoid tumors, EC50 (μM) KASUMI-1
[41] = Loucy cell line, read-out: Haematopoietic & Lymphoid tumors, EC50 (μM) Loucy
[42] = MOLT-4 cell line, read-out: Haematopoietic & Lymphoid tumors, EC50 (μM) MOLT-4
[43] = TF-1 cell line, read-out: Haematopoietic & Lymphoid tumors, EC50 (μM) TF-1
[44] = TOLEDO cell line, read-out: Haematopoietic & Lymphoid tumors, EC50 (μM) TOLEDO
[45] = DU-145, read-out: Prostate cancer EC50 Du-145
[46] = PC-3, PC3 cell line, inhibition of cancer cell proliferation, read-out: Prostate cancer EC50 PC3
[47] = 22Rv1 cell line, inhibition of cancer cell proliferation, read-out: Prostate cancer EC50 22Rv1
[48] = LNCap clone FGC cell line, inhibition of cancer cell proliferation, read-out: Prostate cancer EC50 LNCap clone FGC
[49] = VCaP (Sigma) cell line, inhibition of cancer cell proliferation, read-out: Prostate cancer EC50 VCaP (Sigma)
[50] = BXPC-3, BxPC3 cell line, read-out: Pancreatic cancer, EC50 BxPC3
[51] = CAPAN-1, Capan1 cell line, read-out: Pancreatic cancer, EC50 Capan1
[52] = Capan-2, Capan2 cell line, read-out: Pancreatic cancer, EC50 Capan2
[53] = MIA PaCa-2 cell line, read-out: Pancreatic cancer, EC50 MIA PaCa-2
[54] = PANC 05.04 cell line, read-out: Pancreatic cancer, EC50 PANC 05.04
[55] = PANC-1 cell line, read-out: Pancreatic cancer, EC50 PANC-1
[56] = UPAFII cell line, read-out: Pancreatic cancer, EC50 UPAFII
[57] = PA-1, PA1 cell line, read-out: Ovarian cancer, EC50 (μM) PA1
[58] = TOV112D, TOV-112D cell line, read-out: Ovarian cancer, EC50 (μM) TOV-112D
[59] = OV-90 cell line, read-out: Ovarian cancer, EC50 (μM) OV-90
[60] = OVCAR-3 cell line, read-out: Ovarian cancer, EC50 (μM) OVCAR-3

CLK3, sequence (P49761 whole entry): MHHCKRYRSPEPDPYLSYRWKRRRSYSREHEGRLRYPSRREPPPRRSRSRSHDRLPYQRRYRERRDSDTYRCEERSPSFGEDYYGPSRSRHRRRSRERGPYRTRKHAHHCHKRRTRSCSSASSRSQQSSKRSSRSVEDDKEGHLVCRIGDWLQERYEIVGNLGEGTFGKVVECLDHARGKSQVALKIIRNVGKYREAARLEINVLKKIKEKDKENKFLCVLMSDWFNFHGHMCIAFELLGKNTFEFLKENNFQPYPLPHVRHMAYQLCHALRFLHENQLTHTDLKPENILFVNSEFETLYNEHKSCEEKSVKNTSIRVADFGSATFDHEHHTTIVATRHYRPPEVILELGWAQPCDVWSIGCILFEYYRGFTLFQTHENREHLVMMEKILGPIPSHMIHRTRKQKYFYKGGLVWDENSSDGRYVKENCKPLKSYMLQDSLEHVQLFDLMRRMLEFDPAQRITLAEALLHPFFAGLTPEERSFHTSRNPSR
T1 sequence (P49760 whole entry): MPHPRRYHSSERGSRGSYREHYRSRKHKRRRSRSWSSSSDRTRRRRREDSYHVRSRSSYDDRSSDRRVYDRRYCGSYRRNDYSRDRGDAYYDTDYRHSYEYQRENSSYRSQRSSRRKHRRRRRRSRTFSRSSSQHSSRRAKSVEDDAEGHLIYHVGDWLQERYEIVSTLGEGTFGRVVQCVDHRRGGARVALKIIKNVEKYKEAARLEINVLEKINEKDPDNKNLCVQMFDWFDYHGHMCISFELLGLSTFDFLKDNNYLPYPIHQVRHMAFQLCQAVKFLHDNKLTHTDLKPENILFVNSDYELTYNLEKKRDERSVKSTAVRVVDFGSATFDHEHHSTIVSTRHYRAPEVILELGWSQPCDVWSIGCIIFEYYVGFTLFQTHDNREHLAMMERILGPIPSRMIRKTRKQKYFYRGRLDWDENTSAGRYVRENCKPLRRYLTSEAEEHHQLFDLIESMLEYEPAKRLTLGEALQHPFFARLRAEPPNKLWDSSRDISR

CN(C)C1CN(c2cc(C(=O)Nc3cc4cc(-c5cnn(C)c5)ccc4cn3)ccn2)C1 [Compound 70]
EC50 [1, 19]: 0.605 µM
EC50 [1, 20]: 1.12 µM
EC50 [1, 21]: 1.13 µM
EC50 [1, 22]: 0.389 µM
EC50 [2, 23]: 0.465 µM
EC50 [2, 24]: 1.09 µM
EC50 [2, 25]: 0.352 µM
EC50 [2, 26]: 0.481 µM
EC50 [2, 27]: 0.285 µM
EC50 [2, 28]: 0.739 µM
EC50 [3, 29]: 0.205 µM
EC50 [3, 30]: 0.75 µM
EC50 [3, 31]: 1.47 µM
EC50 [4, 32]: 0.774 µM
EC50 [4, 33]: 0.193 µM
EC50 [4, 34]: 0.189 µM
EC50 [4, 35]: 0.899 µM
EC50 [4, 36]: 1.24 µM
EC50 [4, 37]: 0.273 µM
EC50 [4, 38]: 0.863 µM
EC50 [4, 39]: 0.347 µM
EC50 [4, 40]: 0.555 µM
EC50 [4, 41]: 0.617 µM
EC50 [4, 42]: 0.643 µM
EC50 [4, 43]: 0.785 µM
EC50 [4, 44]: 0.25 µM
EC50 [5]: 1.35 µM
EC50 [6]: 0.788 µM
EC50 [7]: 0.51 µM
EC50 [8]: 1.12 µM
EC50 [9]: 0.891 µM
EC50 [10]: 2.15 µM
EC50 [11]: 0.496 µM
EC50 [12]: 0.624 µM
EC50 [13, 45]: 0.806 µM
EC50 [13, 46]: 0.701 µM
EC50 [13, 47]: 0.612 µM
EC50 [13, 48]: 1.08 µM
EC50 [13, 49]: 1.06 µM
EC50 [14, 50]: 0.94 µM
EC50 [14, 51]: 0.702 µM
EC50 [14, 52]: 1.14 µM
EC50 [14, 53]: 0.461 µM
EC50 [14, 54]: 0.713 µM
EC50 [14, 55]: 1.22 µM
EC50 [14, 56]: 0.385 µM
EC50 [15]: 0.0016 µM
EC50 [16]: 0.75 µM
EC50 [17]: 0.0245 µM
EC50 [18, 57]: 0.585 µM
EC50 [18, 58]: 0.593 µM
EC50 [18, 59]: 1.45 µM
EC50 [18, 60]: 0.37 µM

CN1CCC2(CC1)CN(c1cc(C(=O)Nc3cc4cc(-c5cnn(C)c5)ccc4cn3)ccn1)C2 [Compound 71]
EC50 [1, 19]: 0.198 µM
EC50 [1, 20]: 0.304 µM
EC50 [1, 21]: 0.248 µM
EC50 [1, 22]: 0.095 µM
EC50 [2, 23]: 0.105 µM
EC50 [2, 24]: 0.247 µM
EC50 [2, 25]: 0.068 µM
EC50 [2, 26]: 0.137 µM
EC50 [2, 27]: 0.052 µM
EC50 [2, 28]: 0.145 µM
EC50 [3, 29]: 0.048 µM
EC50 [3, 30]: 0.165 µM
EC50 [3, 31]: 0.459 µM
EC50 [4, 32]: 0.191 µM
EC50 [4, 33]: 0.056 µM
EC50 [4, 34]: 0.061 µM
EC50 [4, 35]: 0.208 µM
EC50 [4, 36]: 0.432 µM
EC50 [4, 37]: 0.054 µM
EC50 [4, 38]: 0.431 µM
EC50 [4, 39]: 0.062 µM
EC50 [4, 40]: 0.129 µM
EC50 [4, 41]: 0.146 µM
EC50 [4, 42]: 0.2 µM
EC50 [4, 43]: 0.368 µM
EC50 [4, 44]: 0.073 µM
EC50 [5]: 0.493 µM
EC50 [6]: 0.307 µM
EC50 [7]: 0.177 µM
EC50 [8]: 0.365 µM
EC50 [9]: 0.292 µM
EC50 [10]: 0.86 µM
EC50 [11]: 0.215 µM
EC50 [12]: 0.14 µM
EC50 [13, 45]: 0.252 µM
EC50 [13, 46]: 0.205 µM
EC50 [13, 47]: 0.232 µM
EC50 [13, 48]: 0.333 µM
EC50 [13, 49]: 0.466 µM
EC50 [14, 50]: 0.383 µM
EC50 [14, 51]: 0.225 µM
EC50 [14, 52]: 0.344 µM
EC50 [14, 53]: 0.09 µM
EC50 [14, 54]: 0.289 µM
EC50 [14, 55]: 0.352 µM
EC50 [14, 56]: 0.14 µM
EC50 [15]: 0.0011 µM
EC50 [16]: 0.232 µM
EC50 [17]: 0.0162 µM
EC50 [18, 57]: 0.209 µM
EC50 [18, 58]: 0.117 µM
EC50 [18, 59]: 0.334 µM
EC50 [18, 60]: 0.092 µM

— patent publication US20220062240A1, “METHODS OF TREATING CANCER USING A CLK INHIBITOR” (BioSplice Therapeutics, Inc., priority 2018, published 2022)
